Values after ≈ are worked out from the molar mass of the structure shown. Active and inactive are the calls of the source. No cut-off for these calls is given here.
What was measured:
Leishmania donovani [1] = assay: Antileishmanial activity against Leishmania donovani after 72 hrs by alamar blue assay; assay type: functional, organism-based
Plasmodium falciparum [2] = assay: Antimalarial activity after 72 hrs against chloroquine-sensitive Plasmodium falciparum D6 in erythrocytes at […] by LDH reporter assay; assay type: functional, organism-based
Plasmodium falciparum [3] = assay: Antimalarial activity after 72 hrs against chloroquine-resistant Plasmodium falciparum W2 in erythrocytes at […] by LDH reporter assay; assay type: functional, organism-based
Vero [4] = assay: Cytotoxicity against african green monkey Vero cells at 4.76 ug/mL by neutral red assay; assay type: cell-based; conditions: chlorocebus sabaeus
Staphylococcus aureus [5] = assay: Antibacterial activity against Staphylococcus aureus; assay type: functional, organism-based
Staphylococcus aureus [6] = assay: Antibacterial activity against methicillin-resistant Staphylococcus aureus; assay type: functional, organism-based
Cryptococcus neoformans = assay: Antifungal activity against Cryptococcus neoformans; assay type: functional, organism-based
[7] = test system: Mycobacterium intracellulare; assay: Antibacterial activity against Mycobacterium intracellular by alamar blue assay; assay type: functional, organism-based
[8] = test system: Human immunodeficiency virus 1; assay: Antiviral activity against HIV1 3B assessed as reverse transcriptase activity by enzyme immunoassay; assay type: functional, organism-based; conditions: Human immunodeficiency virus 1, 3B
[9] = molecular target: T1, Acetylcholinesterase (Bos taurus) (UniProt P23795); assay: Inhibition of bovine AChE
T1 sequence (whole entry): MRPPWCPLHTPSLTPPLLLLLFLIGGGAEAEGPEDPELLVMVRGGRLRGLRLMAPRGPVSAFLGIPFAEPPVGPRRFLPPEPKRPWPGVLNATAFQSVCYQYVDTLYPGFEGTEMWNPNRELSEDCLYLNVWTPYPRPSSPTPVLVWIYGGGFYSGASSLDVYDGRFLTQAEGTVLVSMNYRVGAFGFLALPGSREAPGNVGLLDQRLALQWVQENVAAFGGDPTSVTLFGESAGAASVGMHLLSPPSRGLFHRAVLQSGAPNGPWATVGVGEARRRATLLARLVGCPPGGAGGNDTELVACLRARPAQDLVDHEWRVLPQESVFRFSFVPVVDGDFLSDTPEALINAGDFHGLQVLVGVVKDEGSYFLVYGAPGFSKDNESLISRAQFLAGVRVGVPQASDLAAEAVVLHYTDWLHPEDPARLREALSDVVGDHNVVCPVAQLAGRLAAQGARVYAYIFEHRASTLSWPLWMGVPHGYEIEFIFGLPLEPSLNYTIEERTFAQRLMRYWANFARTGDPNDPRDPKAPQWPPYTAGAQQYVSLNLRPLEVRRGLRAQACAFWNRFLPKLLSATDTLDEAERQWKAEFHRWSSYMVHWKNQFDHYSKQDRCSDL

[10] = molecular target: Beta-secretase 1 (Homo sapiens) (UniProt P56817); assay: Inhibition of human recombinant BACE1 by FRET-based assay
Plasmodium falciparum [11] = assay: Antimalarial activity after 72 hrs against chloroquine-sensitive Plasmodium falciparum D6 in erythrocytes by LDH reporter assay; assay type: functional, organism-based; conditions: D6, 72 h
Plasmodium falciparum [12] = assay: Antimalarial activity after 72 hrs against chloroquine-resistant Plasmodium falciparum W2 in erythrocytes by LDH reporter assay; assay type: functional, organism-based; conditions: W2, 72 h
[13] = molecular target: Glycogen synthase kinase-3 beta (Homo sapiens) (UniProt P49841); assay: Inhibition of human recombinant GSK3-beta assessed as incorporation of [33P]gammaATP into G2S peptide at 25 uM
[14] = test system: Mycobacterium tuberculosis; assay: Antituberculosis activity against Mycobacterium tuberculosis H37Rv after 24 hrs by alamar blue assay; assay type: functional
[15] = test system: Voltage-gated calcium channel; assay: Blocking of calcium channel in human SH-SY5Y cells assessed as inhibition of KCL depolarization-induced cytosolic calcium increase at 1 uM; assay type: cell-based
[16] = molecular target: Glycogen synthase kinase-3 beta (Homo sapiens) (UniProt P49841); assay: Inhibition of GSK3-beta in human SH-SY5Y cells assessed as inhibition of tau phosphorylation at Ser396 at 5 uM after 24 hrs by ELISA sandwich method; assay type: cell-based
SH-SY5Y = assay: Cytotoxicity against human SH-SY5Y cells at 5 uM; assay type: cell-based
Vero [17] = assay: Cytotoxicity against african green monkey Vero cells by neutral red assay; assay type: cell-based; conditions: chlorocebus sabaeus
Leishmania donovani [18] = assay: Antileishmanial activity against Leishmania donovani at 40 ug/mL after 72 hrs by alamar blue assay; assay type: functional, organism-based

Chain of Beta-secretase 1 (Homo sapiens) (P56817 whole entry): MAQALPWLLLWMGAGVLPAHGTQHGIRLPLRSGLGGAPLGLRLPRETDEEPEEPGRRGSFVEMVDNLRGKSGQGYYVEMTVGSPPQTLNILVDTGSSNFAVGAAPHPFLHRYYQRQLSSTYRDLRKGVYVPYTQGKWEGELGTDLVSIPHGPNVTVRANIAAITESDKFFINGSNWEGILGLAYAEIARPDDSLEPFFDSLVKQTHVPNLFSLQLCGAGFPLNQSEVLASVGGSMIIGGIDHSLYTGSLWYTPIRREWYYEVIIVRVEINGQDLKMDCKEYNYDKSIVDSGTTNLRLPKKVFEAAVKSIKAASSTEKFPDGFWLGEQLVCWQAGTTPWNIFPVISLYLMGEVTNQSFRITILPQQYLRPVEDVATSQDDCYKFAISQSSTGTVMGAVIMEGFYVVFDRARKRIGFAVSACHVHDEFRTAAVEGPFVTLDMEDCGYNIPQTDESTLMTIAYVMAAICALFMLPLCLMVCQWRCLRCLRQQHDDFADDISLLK
Chain of Glycogen synthase kinase-3 beta (Homo sapiens) (P49841 whole entry, looked up): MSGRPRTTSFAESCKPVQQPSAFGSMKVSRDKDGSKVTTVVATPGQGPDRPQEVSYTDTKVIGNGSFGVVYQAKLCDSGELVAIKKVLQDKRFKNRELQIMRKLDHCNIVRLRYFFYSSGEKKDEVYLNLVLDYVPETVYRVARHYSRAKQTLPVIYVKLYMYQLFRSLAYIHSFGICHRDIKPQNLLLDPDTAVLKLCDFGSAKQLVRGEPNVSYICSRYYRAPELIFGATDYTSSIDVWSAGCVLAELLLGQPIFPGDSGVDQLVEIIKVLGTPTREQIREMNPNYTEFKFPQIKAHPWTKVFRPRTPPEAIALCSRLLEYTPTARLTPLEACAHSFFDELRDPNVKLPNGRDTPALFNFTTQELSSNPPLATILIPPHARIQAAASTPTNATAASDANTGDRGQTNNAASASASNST

Row | SMILES | IC50 (Leishmania donovani [1]) [µg/mL] | IC90 (Leishmania donovani [1]) [µg/mL] | Activity (Vero [4]) | Activity (Staphylococcus aureus [5]) | Activity (Staphylococcus aureus [6]) | Activity (Cryptococcus neoformans) | IC50 [8] [µg/mL] | Activity [9] | Activity [10] | IC50 (Plasmodium falciparum [11]) [µg/mL] | IC50 (Plasmodium falciparum [12]) [µg/mL] | inhibition [13] [%] | MIC [14] [µg/mL] | IC50 (Cryptococcus neoformans) [µg/mL] | IC50 [7] [µg/mL] | also measured
1 | N=C(N)c1ccc(OCCCCCOc2ccc(C(=N)N)cc2)cc1 [PENTAMIDINE] | 2.1 (≈ 6.17 µM) | 10 (≈ 29.4 µM) |  |  |  |  |  |  |  |  |  |  |  |  |  | 
2 | C1=C(c2[nH]ccc3c4ccccc4nc2-3)[C@@H]2CCN3CCCC/C=C\CC[C@]14O[C@@H]1CCC/C=C\[C@H]5C[C@@]2(C3)[C@H]4N51 [12,28-OXAMANZAMINE A] | 7.8 (≈ 14.3 µM) | 50 (≈ 91.4 µM) | Non-toxic | inactive | inactive | inactive | 22.2 (≈ 40.6 µM) | inactive | inactive |  |  |  |  |  |  | Activity (Plasmodium falciparum [2]): inactive; Activity (Plasmodium falciparum [3]): inactive; Activity [7]: inactive
3 | Cc1cn([C@H]2C[C@H](N=[N+]=[N-])[C@@H](CO)O2)c(=O)[nH]c1=O [ZIDOVUDINE] |  |  |  |  |  |  | 0.004 (≈ 0.015 µM) |  |  |  |  |  |  |  |  | 
4 | C[C@@H]1CC[C@H]2[C@@H](C)C(=O)O[C@@H]3O[C@@]4(C)CC[C@@H]1[C@]32OO4 [ARTEMISININ] |  |  |  |  |  |  |  |  |  | 0.01 (≈ 0.0354 µM) | 0.0063 (≈ 0.0223 µM) |  |  |  |  | 
5 | C1=C\CC[C@]23CN4CCCC/C=C\CC[C@@]5(O[C@H]5[C@@H](c5nccc6c5[nH]c5ccccc56)[C@@H]2CC4)[C@@H]3NCCCC/1 |  |  |  |  |  |  |  | inactive | inactive |  |  |  |  |  |  | 
6 | O=C1CCCN2[C@@H](CC1)C[C@]13CN4CCCC/C=C\CC[C@](O)(C=C(c5nccc6c5[nH]c5c(O)cccc56)C1CC4)[C@H]23 (stereo partly drawn) [MANZAMINE F] | 4.2 (≈ 7.23 µM) | 7 (≈ 12.1 µM) | Non-toxic | inactive | inactive |  | 7.3 (≈ 12.6 µM) | inactive | inactive | 0.78 (≈ 1.34 µM) | 1.7 (≈ 2.93 µM) | 29.9 | 2.6 (≈ 4.48 µM) | 6.5 (≈ 11.2 µM) | 6.25 (≈ 10.8 µM) | 
7 | Oc1cccc2c1[nH]c1c(C3=C[C@@]4(O)CC/C=C\CCCCN5CC[C@@H]3[C@]3(CC6/C=C\CCCCN6[C@H]34)C5)nccc12 (stereo partly drawn) | 6.2 (≈ 11 µM) | 11 (≈ 19.5 µM) |  |  |  |  | 0.59 (≈ 1.04 µM) | inactive | inactive | 0.006 (≈ 0.0106 µM) | 0.008 (≈ 0.0142 µM) | 86.7 | 0.9 (≈ 1.59 µM) | 3 (≈ 5.31 µM) | 1 (≈ 1.77 µM) | inhibition (INH) [15]: 20%; Activity [16]: Active; Activity (SH-SY5Y): Non-toxic; IC50 (Vero [17]): 1.1 µg/mL (≈ 1.95 µM); IC50 (Staphylococcus aureus [5]): 0.9 µg/mL (≈ 1.59 µM); IC50 (Staphylococcus aureus [6]): 4 µg/mL (≈ 7.08 µM)
8 | C[C@@H]1[C@H](O)[C@@H](C)/C=C/C=C/C=C/C=C/C=C/C=C/C=C/[C@H](O[C@@H]2O[C@H](C)[C@@H](O)[C@H](N)[C@@H]2O)C[C@@H]2O[C@](O)(C[C@@H](O)C[C@@H](O)[C@H](O)CC[C@@H](O)C[C@@H](O)CC(=O)O[C@H]1C)C[C@H](O)[C@H]2C(=O)O [AMPHOTERICIN B] | 0.06 (≈ 0.0649 µM) | 0.15 (≈ 0.162 µM) |  |  |  |  |  |  |  |  |  |  |  | 0.15 (≈ 0.162 µM) |  | 
9 | Oc1ccc2[nH]c3c(C4=C[C@@]5(O)CC/C=C\CCCCN6CC[C@@H]4[C@]4(C[C@@H]7/C=C\CCCCN7[C@H]45)C6)nccc3c2c1 [MANZAMINE Y] | 1.6 (≈ 2.83 µM) | 8 (≈ 14.2 µM) |  |  |  | inactive |  | inactive | inactive | 0.42 (≈ 0.744 µM) | 0.85 (≈ 1.51 µM) | 74.3 | 5.2 (≈ 9.21 µM) |  | 3.5 (≈ 6.2 µM) | IC50 (Vero [17]): 3.9 µg/mL (≈ 6.91 µM); IC50 (Staphylococcus aureus [5]): 15 µg/mL (≈ 26.6 µM); IC50 (Staphylococcus aureus [6]): 15 µg/mL (≈ 26.6 µM)
10 | O=C1CCCN2[C@H]3[C@]45CN6CCCC/C=C\CC[C@]3(C=C(c3nccc7c3[nH]c3c(O)cccc37)[C@H]4CC6)O[C@]2(CC1)C5 |  |  | Non-toxic | inactive | inactive | inactive | 14.9 (≈ 25.7 µM) | inactive | inactive | 0.84 (≈ 1.45 µM) | 1.1 (≈ 1.9 µM) |  | 12.5 (≈ 21.6 µM) |  |  | Activity (Leishmania donovani [18]): inactive; Activity [7]: inactive

From ChEMBL document CHEMBL1142603, “Manzamine B and E and ircinal A related alkaloids from an Indonesian Acanthostrongylophora sponge and their activity against infectious, tropical parasitic, and Alzheimer's diseases” (J Nat Prod, 2006)
